Measured values as given in patent US20160122320A1, “USEFUL COMBINATIONS OF MONOBACTAM ANTIBIOTICS WITH BETA-LACTAMASE INHIBITORS” (Basilea Pharmaceutica AG, priority 2005, published 2016).
Where a name gives a salt, the structure may show the parent alone.

Assays:
Assay in all cases: MIC, NCCLS broth microdilution
Type in all cases: cell-based
Acinetobacter sp. J2 = settings: for MIC of antibiotic at fixed inhibitor concentration (4 mg/L): Acinetobacter sp. J2, MIC of antibiotic compound 1 with the labelled bridged monobactam of formula II and clavulanate, 4 mg/L each
[1] = tested on: Stenotrophomonas malthophilia 1AC736; settings: for MIC of antibiotic at fixed inhibitor concentration (4 mg/L): Stenotrophomonas malthophilia 1AC736, MIC of antibiotic compound 1 with the labelled bridged monobactam of formula II and clavulanate, 4 mg/L each
Enterobacter cloacae P99 = settings: for MIC of antibiotic at fixed inhibitor concentration (4 mg/L): MIC of antibiotic compound 1 with the labelled bridged monobactam of formula II and clavulanate, 4 mg/L each
Serratia marcescens S6 = settings: for MIC of antibiotic at fixed inhibitor concentration (4 mg/L): MIC of antibiotic compound 1 with the labelled bridged monobactam of formula II and clavulanate, 4 mg/L each
[2] = tested on: Pseudomonas aeruginosa MK1184; settings: for MIC of antibiotic at fixed inhibitor concentration (4 mg/L): MIC of antibiotic compound 1 with the labelled bridged monobactam of formula II and clavulanate, 4 mg/L each
[3] = tested on: Pseudomonas aeruginosa 1973E; settings: for MIC of antibiotic at fixed inhibitor concentration (4 mg/L): MIC of antibiotic compound 1 with the labelled bridged monobactam of formula II and clavulanate, 4 mg/L each
Procedure: Antimicrobial activity of the compounds and of their combinations was determined against a selection of organisms according to the standard procedures described by the National Committee for Clinical Laboratory Standards (National Committee for Clinical Laboratory. Standards (2000). Methods for Dilution Antimicrobial Susceptibility Tests for Bacteria That Grow Aerobically-Fifth Edition: Approved Standard M7-A5. NCCLS, Wayne, Pa., USA).
In all cases the final concentration of DMSO incubated with the bacteria is less than or equal to 1%. […] Plates were incubated overnight at an appropriate temperature (30° C. or 37° C.) and optical densities assessed by eye. The MIC value is defined as the lowest compound concentration completely inhibiting visible growth of the test organism. When combinations between compounds of formula I with compounds of formula II and are evaluated the compounds of formula I are tested in dilution series as described above while the compounds of formula II and III-XIII were present in all wells at a constant concentration of 4 μg/mL each.

[4] = tested on: Klebsiella pneumoniae CF104; settings: for MIC of antibiotic at fixed inhibitor concentration (4 mg/L): MIC of antibiotic compound 1 with the labelled bridged monobactam of formula II and clavulanate, 4 mg/L each
[5] = with clavulanate (clavulanic acid)

SMILES: C[C@H](ON1C(=O)[C@@H](NC(=O)/C(=N\OCc2cc(=O)c(O)cn2O)c2csc(N)n2)[C@@H]1C)C(=O)O [Compound 23, (2S)-2-((3S,4S)-3-{(2Z)-2-(2-amino(1,3-thiazol-4-yl))-3-[(1,5-dihydroxy-4-oxo(2-hydropyridyl))methoxy]-3-azaprop-2enoylamino}-4-methyl-2-oxoazetidinyloxy)propanoic acid]
- MIC of antibiotic (Acinetobacter sp. J2; Acinetobacter baumannii J2, antibiotic alone, no inhibitor): 16 µg/mL
- MIC of antibiotic at fixed inhibitor concentration of 4 mg/L (Acinetobacter sp. J2; Acinetobacter baumannii J2, with 102 and clavulanate): 8 µg/mL
- MIC of antibiotic at fixed inhibitor concentration of 4 mg/L (Acinetobacter sp. J2; Acinetobacter baumannii J2, with 324 and clavulanate): 8 µg/mL
- MIC of antibiotic at fixed inhibitor concentration of 4 mg/L (Acinetobacter sp. J2; Acinetobacter baumannii J2, with 324 and sulbactam): 2 µg/mL
- MIC of antibiotic ([1]; Stenotrophomonas maltophilia 1AC736, antibiotic alone, no inhibitor): 1 µg/mL
- MIC of antibiotic (Enterobacter cloacae P99; antibiotic alone, no inhibitor): >32 µg/mL
- MIC of antibiotic at fixed inhibitor concentration of 4 mg/L (Enterobacter cloacae P99; with 102 and clavulanate): 8 µg/mL
- MIC of antibiotic at fixed inhibitor concentration of 4 mg/L (Enterobacter cloacae P99; with 324 and clavulanate): 4 µg/mL
- MIC of antibiotic at fixed inhibitor concentration of 4 mg/L (Enterobacter cloacae P99; with 324 and sulbactam): 8 µg/mL
- MIC of antibiotic (Serratia marcescens S6; antibiotic alone, no inhibitor): 0.25 µg/mL
- MIC of antibiotic at fixed inhibitor concentration of 4 mg/L (Serratia marcescens S6; with 102 and clavulanate): 0.25 µg/mL
- MIC of antibiotic at fixed inhibitor concentration of 4 mg/L (Serratia marcescens S6; with 324 and clavulanate): 0.25 µg/mL
- MIC of antibiotic at fixed inhibitor concentration of 4 mg/L (Serratia marcescens S6; with 324 and sulbactam): 0.5 µg/mL
- MIC of antibiotic ([2]; antibiotic alone, no inhibitor): 8 µg/mL
- MIC of antibiotic at fixed inhibitor concentration of 4 mg/L ([2]; with 102 and clavulanate): 8 µg/mL
- MIC of antibiotic at fixed inhibitor concentration of 4 mg/L ([2]; with 324 and clavulanate): 8 µg/mL
- MIC of antibiotic at fixed inhibitor concentration of 4 mg/L ([2]; with 324 and sulbactam): 8 µg/mL
- MIC of antibiotic ([3]; antibiotic alone, no inhibitor): 8 µg/mL
- MIC of antibiotic at fixed inhibitor concentration of 4 mg/L ([3]; with 102 and clavulanate): 8 µg/mL
- MIC of antibiotic at fixed inhibitor concentration of 4 mg/L ([3]; with 324 and clavulanate): 16 µg/mL
- MIC of antibiotic at fixed inhibitor concentration of 4 mg/L ([3]; with 324 and sulbactam): 16 µg/mL
- MIC of antibiotic ([4]; antibiotic alone, no inhibitor): >32 µg/mL
- MIC of antibiotic at fixed inhibitor concentration of 4 mg/L ([4]; with 102 and clavulanate): 1 µg/mL
- MIC of antibiotic at fixed inhibitor concentration of 4 mg/L ([4]; with 324 and clavulanate): 1 µg/mL
- MIC of antibiotic at fixed inhibitor concentration of 4 mg/L ([4]; with 324 and sulbactam): 2 µg/mL

SMILES: O=C(NCc1ccc(O)c(O)c1)N1CC[C@@H]2[C@H]1C(=O)N2S(=O)(=O)[O-].[Na+] [Compound 303, Sodium(1S,5R)-2-{N-[(3,4-dihydroxyphenyl)methyl]carbamoyl}-7-oxo-2,6-diazabicyclo[3.2.0]heptane-6-sulfonate]
- MIC of antibiotic at fixed inhibitor concentration (4 mg/L) (Acinetobacter sp. J2): >32 µg/mL
- MIC of antibiotic at fixed inhibitor concentration (4 mg/L) [1]: 0.125 µg/mL
- MIC of antibiotic at fixed inhibitor concentration (4 mg/L) (Enterobacter cloacae P99): 32 µg/mL
- MIC of antibiotic at fixed inhibitor concentration (4 mg/L) (Serratia marcescens S6): 0.5 µg/mL
- MIC of antibiotic at fixed inhibitor concentration (4 mg/L) [2]: >32 µg/mL
- MIC of antibiotic at fixed inhibitor concentration (4 mg/L) [3]: 4 µg/mL
- MIC of antibiotic at fixed inhibitor concentration (4 mg/L) [4]: 2 µg/mL

SMILES: O=C(NCc1ccccc1)N1CC[C@@H]2[C@H]1C(=O)N2S(=O)(=O)[O-].[Na+] [Compound 302]
- MIC of antibiotic at fixed inhibitor concentration (4 mg/L) (Acinetobacter sp. J2): >32 µg/mL
- MIC of antibiotic at fixed inhibitor concentration (4 mg/L) [1]: 0.125 µg/mL
- MIC of antibiotic at fixed inhibitor concentration (4 mg/L) (Enterobacter cloacae P99): 32 µg/mL
- MIC of antibiotic at fixed inhibitor concentration (4 mg/L) (Serratia marcescens S6): 0.25 µg/mL
- MIC of antibiotic at fixed inhibitor concentration (4 mg/L) [2]: >32 µg/mL
- MIC of antibiotic at fixed inhibitor concentration (4 mg/L) [3]: 4 µg/mL
- MIC of antibiotic at fixed inhibitor concentration (4 mg/L) [4]: 2 µg/mL

SMILES: CN(C)c1cc[n+](CC(=O)N2CC[C@@H]3[C@H]2C(=O)N3S(=O)(=O)[O-])cc1 [Compound 112, (1S,5R)-2-{2-[4-(dimethylamino)pyridinium]acetyl}-7-oxo-2,6-diazabicyclo[3.2.0]heptane-6-sulfonate, inner salt]
- MIC of antibiotic at fixed inhibitor concentration (4 mg/L) (Acinetobacter sp. J2): 16 µg/mL
- MIC of antibiotic at fixed inhibitor concentration (4 mg/L) [1]: 0.125 µg/mL
- MIC of antibiotic at fixed inhibitor concentration (4 mg/L) (Enterobacter cloacae P99): >32 µg/mL
- MIC of antibiotic at fixed inhibitor concentration (4 mg/L) (Serratia marcescens S6): 0.5 µg/mL
- MIC of antibiotic at fixed inhibitor concentration (4 mg/L) [2]: >32 µg/mL
- MIC of antibiotic at fixed inhibitor concentration (4 mg/L) [3]: 8 µg/mL
- MIC of antibiotic at fixed inhibitor concentration (4 mg/L) [4]: <=0.06 mg/L

SMILES: CC1(C)S[C@@H]2[C@H](NC(=O)[C@H](N)c3ccc(O)cc3)C(=O)N2[C@H]1C(=O)O [Amoxicillin, amoxicillin, reference compound]
- MIC of antibiotic at fixed inhibitor concentration of 4 mg/L (Acinetobacter sp. J2; Acinetobacter baumannii J2, with clavulanate (clavulanic acid)): >32 µg/mL
- MIC of antibiotic at fixed inhibitor concentration of 4 mg/L ([1]; Stenotrophomonas maltophilia 1AC736, with clavulanate (clavulanic acid)): >32 µg/mL
- MIC of antibiotic at fixed inhibitor concentration of 4 mg/L (Enterobacter cloacae P99; [5]): >32 µg/mL
- MIC of antibiotic at fixed inhibitor concentration of 4 mg/L (Serratia marcescens S6; [5]): >32 µg/mL
- MIC of antibiotic at fixed inhibitor concentration of 4 mg/L [2, 5]: >32 µg/mL
- MIC of antibiotic at fixed inhibitor concentration of 4 mg/L [3, 5]: >32 µg/mL
- MIC of antibiotic at fixed inhibitor concentration of 4 mg/L [4, 5]: 32 µg/mL

SMILES: O=C(C[n+]1cccc(C(F)(F)F)c1)N1CC[C@@H]2[C@H]1C(=O)N2S(=O)(=O)[O-] [Compound 120, (1S,5R)-7-oxo-2-{2-[3-(trifluoromethyl)pyridinium]acetyl}-2,6-diazabicyclo[3.2.0]heptane-6-sulfonate, inner salt]
- MIC of antibiotic at fixed inhibitor concentration (4 mg/L) (Acinetobacter sp. J2): 32 µg/mL
- MIC of antibiotic at fixed inhibitor concentration (4 mg/L) [1]: 0.125 µg/mL
- MIC of antibiotic at fixed inhibitor concentration (4 mg/L) (Enterobacter cloacae P99): 32 µg/mL
- MIC of antibiotic at fixed inhibitor concentration (4 mg/L) (Serratia marcescens S6): 0.25 µg/mL
- MIC of antibiotic at fixed inhibitor concentration (4 mg/L) [2]: 16 µg/mL
- MIC of antibiotic at fixed inhibitor concentration (4 mg/L) [3]: 8 µg/mL
- MIC of antibiotic at fixed inhibitor concentration (4 mg/L) [4]: 0.25 µg/mL

SMILES: COC(=O)c1ccc[n+](CC(=O)N2CC[C@@H]3[C@H]2C(=O)N3S(=O)(=O)[O-])c1 [Compound 116, (1S,5R)-2-{2-[3-(methoxycarbonyl)pyridinium]acetyl}-7-oxo-2,6-diazabicyclo[3.2.0]heptane-6-sulfonate, inner salt]
- MIC of antibiotic at fixed inhibitor concentration (4 mg/L) (Acinetobacter sp. J2): 16 µg/mL
- MIC of antibiotic at fixed inhibitor concentration (4 mg/L) [1]: 0.125 µg/mL
- MIC of antibiotic at fixed inhibitor concentration (4 mg/L) (Enterobacter cloacae P99): 32 µg/mL
- MIC of antibiotic at fixed inhibitor concentration (4 mg/L) (Serratia marcescens S6): 0.25 µg/mL
- MIC of antibiotic at fixed inhibitor concentration (4 mg/L) [2]: 8 µg/mL
- MIC of antibiotic at fixed inhibitor concentration (4 mg/L) [3]: 16 µg/mL
- MIC of antibiotic at fixed inhibitor concentration (4 mg/L) [4]: 0.5 µg/mL

SMILES: CC(C)c1cc[n+](CC(=O)N2CC[C@@H]3[C@H]2C(=O)N3S(=O)(=O)[O-])cc1 [Compound 113, (1S,5R)-2-{2-[4-(isopropyl)pyridinium]acetyl}-7-oxo-2,6-diazabicyclo[3.2.0]heptane-6-sulfonate, inner salt]
- MIC of antibiotic at fixed inhibitor concentration (4 mg/L) (Acinetobacter sp. J2): >32 µg/mL
- MIC of antibiotic at fixed inhibitor concentration (4 mg/L) [1]: 0.25 µg/mL
- MIC of antibiotic at fixed inhibitor concentration (4 mg/L) (Enterobacter cloacae P99): 32 µg/mL
- MIC of antibiotic at fixed inhibitor concentration (4 mg/L) (Serratia marcescens S6): 0.25 µg/mL
- MIC of antibiotic at fixed inhibitor concentration (4 mg/L) [2]: >32 µg/mL
- MIC of antibiotic at fixed inhibitor concentration (4 mg/L) [3]: 4 µg/mL
- MIC of antibiotic at fixed inhibitor concentration (4 mg/L) [4]: 0.125 µg/mL

SMILES: COc1cc(CNC(=O)N2CC[C@@H]3[C@H]2C(=O)N3S(=O)(=O)[O-])on1.[Na+] [Compound 313]
- MIC of antibiotic at fixed inhibitor concentration (4 mg/L) (Acinetobacter sp. J2): 4 µg/mL
- MIC of antibiotic at fixed inhibitor concentration (4 mg/L) [1]: 0.125 µg/mL
- MIC of antibiotic at fixed inhibitor concentration (4 mg/L) (Enterobacter cloacae P99): 16 µg/mL
- MIC of antibiotic at fixed inhibitor concentration (4 mg/L) (Serratia marcescens S6): 0.25 µg/mL
- MIC of antibiotic at fixed inhibitor concentration (4 mg/L) [2]: >32 µg/mL
- MIC of antibiotic at fixed inhibitor concentration (4 mg/L) [3]: 4 µg/mL
- MIC of antibiotic at fixed inhibitor concentration (4 mg/L) [4]: 0.5 µg/mL

SMILES: Cc1nnc(SCC(=O)N2CC[C@@H]3[C@H]2C(=O)N3S(=O)(=O)[O-])s1.[Na+] [Compound 202, Sodium(1S,5R)-2-[2-(1-methyl(1,3,4-thiadiazol-2-ylthio))acetyl]-7-oxo-2,6-diazabicyclo[3.2.0]heptane-6-sulfonate]
- MIC of antibiotic at fixed inhibitor concentration (4 mg/L) (Acinetobacter sp. J2): 4 µg/mL
- MIC of antibiotic at fixed inhibitor concentration (4 mg/L) [1]: 0.125 µg/mL
- MIC of antibiotic at fixed inhibitor concentration (4 mg/L) (Enterobacter cloacae P99): 16 µg/mL
- MIC of antibiotic at fixed inhibitor concentration (4 mg/L) (Serratia marcescens S6): 0.5 µg/mL
- MIC of antibiotic at fixed inhibitor concentration (4 mg/L) [2]: 8 µg/mL
- MIC of antibiotic at fixed inhibitor concentration (4 mg/L) [3]: 4 µg/mL
- MIC of antibiotic at fixed inhibitor concentration (4 mg/L) [4]: 2 µg/mL
